# Measured values reported in article PMC10364317, “Regulation of indole‐3‐acetic acid biosynthesis and consequences of auxin production deficiency in Serratia plymuthica” (Microbial Biotechnology, 2023).
# Entries after “also recorded” stand apart in the source; their conditions may differ. Read-outs that look alike come from different tables or passages of the source.
# T1: TyrR (TyrRA153) (Serratia plymuthica A153, UniProt A0A318P557 1-523)
# T1 sequence: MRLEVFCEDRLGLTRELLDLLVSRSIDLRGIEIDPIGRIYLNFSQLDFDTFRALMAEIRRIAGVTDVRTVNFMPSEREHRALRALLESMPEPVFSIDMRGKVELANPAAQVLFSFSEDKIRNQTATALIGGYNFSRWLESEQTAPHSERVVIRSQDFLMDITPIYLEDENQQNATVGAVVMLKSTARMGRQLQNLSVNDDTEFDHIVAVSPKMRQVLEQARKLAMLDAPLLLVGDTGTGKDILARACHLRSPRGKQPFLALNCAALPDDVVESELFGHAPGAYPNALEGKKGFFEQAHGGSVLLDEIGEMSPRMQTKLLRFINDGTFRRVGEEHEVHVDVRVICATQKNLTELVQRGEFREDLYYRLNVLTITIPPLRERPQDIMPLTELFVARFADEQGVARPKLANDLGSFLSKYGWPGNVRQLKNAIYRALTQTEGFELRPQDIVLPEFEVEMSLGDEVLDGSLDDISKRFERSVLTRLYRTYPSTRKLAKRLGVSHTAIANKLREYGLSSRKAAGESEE
# Assays:
# HpaRA153 = experiment: Isothermal titration calorimetry of HpaRA153 with ligands; assay type: binding, Serratia plymuthica A153
# Description: (§1) Measurements were made using a VP‐ITC microcalorimeter (MicroCal, Inc., Northampton, MA) at 10–25°C. HpaAA153 and HpaRA153 were dialyzed into 50 mM Tris, 300 mM NaCl, 10% (v/v) glycerol, 2 mM β‐mercaptoethanol, pH 8.0. Alternatively, TyrRA153 was dialyzed into 5 mM Tris, 5 mM PIPES, 5 mM MES, 150 mM NaCl, 10 mM MgCl2, 10 mM β‐mercaptoethanol, 10% (v/v) glycerol, pH 7.5. Proteins at 5–50 μM were placed into the sample cell and titrated with 3.2–12.8 μL aliquots of 0.5–10 mM ligand solutions made up in the corresponding dialysis buffers. For DNA binding studies, wild‐type and mutant oligonucleotides corresponding to the TyrR box were synthesized and annealed. Briefly, an equimolar mixture of 200 μM of each complementary oligonucleotide was prepared in 10 mM Tris, 50 mM NaCl, 1 mM EDTA, pH 7.5. This mixture was subsequently incubated at 95°C for 5 min, chilled on ice and dialyzed in the same buffer used for TyrRA153 ITC studies. A typical experiment consisted in an injection of 3.2–12.8 μL aliquots of 100 μM DNA into a 5–20 μM protein solution in the absence and presence of TyrR ligands (e.g. 1 mM L‐Trp; 1 mM L‐Phe; 0.1 mM L‐Tyr; 0.5 mM ATP). Protein‐DNA interaction studies were done at 10°C. In all cases, the mean enthalpies measured from the injection of the ligand in the buffer were subtracted from raw titration data before data analysis with the ORIGIN software (MicroCal).
# HpaAA153 = HpaAA153 (Serratia plymuthica, UniProt A0A7T2WCJ6); experiment: Isothermal titration calorimetry of HpaAA153 with ligands; assay type: binding, Serratia plymuthica A153
# Chain of HpaAA153 (A0A7T2WCJ6 entry or part of it): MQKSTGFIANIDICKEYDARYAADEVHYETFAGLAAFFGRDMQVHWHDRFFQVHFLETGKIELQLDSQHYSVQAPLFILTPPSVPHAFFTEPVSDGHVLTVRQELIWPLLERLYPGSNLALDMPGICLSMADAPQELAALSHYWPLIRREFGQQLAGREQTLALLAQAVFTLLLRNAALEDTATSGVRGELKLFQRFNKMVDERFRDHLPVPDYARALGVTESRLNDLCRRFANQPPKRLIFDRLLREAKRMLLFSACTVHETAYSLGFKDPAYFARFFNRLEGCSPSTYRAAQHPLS
# Description: as §1
# ipdc promoter = experiment: β-Galactosidase assay of the ipdc promoter fusion (P ipdc::lacZ; pMAMV302); assay type: cell-based, Serratia plymuthica A153; details: for induction of ipdc gene expression compared to the same medium lacking the ligand: minimal medium with 15 mM glucose, 1 mM ligand, 24 h
# Description: Expression of the lacZ reporter gene was monitored during growth using 2‐nitrophenyl β‐D‐galactopyranoside (ONPG; Merck) as a substrate, as described previously (Miller, [1972]). The transcriptional fusion assays were carried out using S. plymuthica A153 LacZ (control) or derived mutants.
# [1] = parameters: method as in Patten et al., [2013]; details: ref Patten et al., [2013]; cited from earlier work
# TyrRA153 [2] = biological target: T2, TyrRA153 (Serratia plymuthica, UniProt A0A318P557); experiment: Isothermal titration calorimetry of TyrRA153 with ligands; assay type: binding, Serratia plymuthica A153; details: for competition with L-Tyr for binding at the ATP-dependent site of TyrRA153: 10 mM competitor, 1 mM ATP, titration with 1 mM L-Tyr
# Description: as §1
# TyrRA153 [3] = biological target: T2, TyrRA153; experiment: Microcalorimetric titrations of TyrRA153 with 26-bp DNA oligomers of the ipdc promoter (TyrR box); assay type: binding, Serratia plymuthica A153; details: wild-type ipdc promoter oligomer; for increase of TyrRA153 DNA binding affinity: saturating ligand concentration
# Description: as §1
# TyrR (TyrRA153) [4] = biological target: T1, TyrR (TyrRA153); experiment: ITC; no amino acid or ATP; 10 mM MgCl2; ITC: 5 mM Tris, 5 mM PIPES, 5 mM MES, 150 mM NaCl, 10 mM MgCl2, 10 mM beta-mercaptoethanol, 10% glycerol, pH 7.5, 10 C; 100 uM DNA injected into 5-20 uM TyrR; details: protein: recombinant; tags: N-terminal His6; chain copies: 2; blunt
# TyrR (TyrRA153) [5] = biological target: T1, TyrR (TyrRA153); experiment: ITC; L-Tyr + ATP (saturating; e.g. 0.1 mM L-Tyr, 0.5 mM ATP); 10 mM MgCl2; ITC: 5 mM Tris, 5 mM PIPES, 5 mM MES, 150 mM NaCl, 10 mM MgCl2, 10 mM beta-mercaptoethanol, 10% glycerol, pH 7.5, 10 C; 100 uM DNA injected into 5-20 uM TyrR; details: protein: recombinant; tags: N-terminal His6; chain copies: 2; blunt
# TyrR (TyrRA153) [6] = biological target: T1, TyrR (TyrRA153); experiment: ITC; L-Phe (saturating; e.g. 1 mM); 10 mM MgCl2; ITC: 5 mM Tris, 5 mM PIPES, 5 mM MES, 150 mM NaCl, 10 mM MgCl2, 10 mM beta-mercaptoethanol, 10% glycerol, pH 7.5, 10 C; 100 uM DNA injected into 5-20 uM TyrR; details: protein: recombinant; tags: N-terminal His6; chain copies: 2; blunt
# [7] = ITC, in the presence of ATP, read-out: K D
# [8] = ITC, ligand alone (absence of ATP for amino acids)
# [9] = ITC, ligand alone (absence of ATP for amino acids), read-out: K D
molecule,measurement,setting,value
O=C(O)Cc1cccc(O)c1 [3-hydroxyphenylacetic acid],binding to HpaRA153 as determined by isothermal titration calorimetry,HpaRA153,did not bind
O=C(O)c1ccc(O)cc1 [4‐hydroxybenzoic acid],Kd,HpaAA153,28.5 ± 2 µM
same,ΔH,"HpaAA153; ITC, One binding site model",-0.4 ± 0.03 kcal/mol
same,binding to HpaRA153 as determined by isothermal titration calorimetry,HpaRA153,did not bind
"O=C(O)Cc1ccc(O)cc1 [4HPA, 4‐hydroxyphenylacetic acid]",Kd,HpaAA153,28.5 µM
same,binding to HpaRA153 as determined by isothermal titration calorimetry,HpaRA153,unable to observe the binding
O=C(O)c1ccccc1O [Salicylic acid],binding to HpaAA153 as determined by isothermal titration calorimetry,HpaAA153,did not bind
same,binding to HpaRA153 as determined by isothermal titration calorimetry,HpaRA153,did not bind
"O=C(O)Cc1ccccc1 [PAA, phenylacetic acid]",binding to HpaAA153 as determined by isothermal titration calorimetry,HpaAA153,did not recognize
same,binding to HpaAA153 as determined by isothermal titration calorimetry,HpaAA153; listed as Phenylacetic acid,did not bind
same,binding to HpaRA153 as determined by isothermal titration calorimetry,HpaRA153,did not recognize
same,binding to HpaRA153 as determined by isothermal titration calorimetry,HpaRA153; listed as Phenylacetic acid,did not bind
O=C(O)C(=O)Cc1c[nH]c2ccccc12 [Indole-3-pyruvic acid],binding to HpaAA153 as determined by isothermal titration calorimetry,HpaAA153,did not bind
same,binding to HpaRA153 as determined by isothermal titration calorimetry,HpaRA153,did not bind
Cc1cccc(C(=O)O)c1 [3-methylbenzoic acid],binding to HpaAA153 as determined by isothermal titration calorimetry,HpaAA153,did not bind
same,binding to HpaRA153 as determined by isothermal titration calorimetry,HpaRA153,did not bind
"O=C(O)Cc1ccc(O)c(O)c1 [3,4HPA, 3,4‐dihydroxyphenylacetic acid]",binding to HpaAA153 as determined by isothermal titration calorimetry,HpaAA153,did not bind
same,binding to HpaRA153 as determined by isothermal titration calorimetry,HpaRA153,unable to observe the binding
same,binding to HpaRA153 as determined by isothermal titration calorimetry,"HpaRA153; listed as 3,4-dihydroxyphenylacetic acid",did not bind
O=C(O)c1ccccc1 [Benzoic acid],binding to HpaAA153 as determined by isothermal titration calorimetry,HpaAA153,did not bind
same,binding to HpaRA153 as determined by isothermal titration calorimetry,HpaRA153,did not bind
"O=C(O)Cc1c[nH]c2ccccc12 [IAA, Indole‐3‐acetic acid]",effect of supplementation on ipdc expression,"ipdc promoter; 0.25 mM and 1 mM, wild-type A153 and ipdc mutant",did not result in altered ipdc expression
same,induction of ipdc gene expression compared to the same medium lacking the ligand,ipdc promoter; 30°C,No changes in ipdc expression
same,binding to HpaAA153 as determined by isothermal titration calorimetry,HpaAA153,unable to observe IAA binding
same,binding to HpaAA153 as determined by isothermal titration calorimetry,HpaAA153; listed as Indole-3-acetic acid,did not bind
same,pKa,[1],4.8
same,binding to TyrRA153 as determined by isothermal titration calorimetry,TyrRA153 [2],did not bind
same,binding to HpaRA153 as determined by isothermal titration calorimetry,HpaRA153,unable to observe IAA binding
same,binding to HpaRA153 as determined by isothermal titration calorimetry,HpaRA153; listed as Indole-3-acetic acid,did not bind
"N[C@@H](Cc1ccc(O)cc1)C(=O)O [L‐Tyr, L‐Tyrosine]",induction of ipdc gene expression compared to the same medium lacking the ligand,ipdc promoter; 30°C,11.0 fold
same,increase of TyrRA153 DNA binding affinity,TyrRA153 [3],2.4 fold
same,ΔH,"TyrRA153 [2]; ITC, in the presence of ATP",-6.8 ± 0.1 kcal/mol
same,Kd,TyrRA153 [2]; [7],6 ± 0.2 µM
same,K D,TyrRA153 [2]; [8],No binding
same,ΔH,TyrRA153 [2]; [8],No binding
Nc1ncnc2c1ncn2[C@@H]1O[C@H](COP(=O)(O)OP(=O)(O)OP(=O)(O)O)[C@@H](O)[C@H]1O [ATP],ΔH,TyrRA153 [2]; [8],-22.9 ± 1.5 kcal/mol
same,Kd,TyrRA153 [2]; [9],16 ± 0.7 µM
"N[C@@H](Cc1ccccc1)C(=O)O [L‐Phe, L‐Phenylalanine]",induction of ipdc gene expression compared to the same medium lacking the ligand,ipdc promoter; 30°C,5.1 fold
same,increase of TyrRA153 DNA binding affinity,TyrRA153 [3],2.6 fold
same,competition with L-Tyr for binding at the ATP-dependent site of TyrRA153,TyrRA153 [2]; ITC,compete with L‐Tyr for binding
same,ΔH,"TyrRA153 [2]; ITC, in the presence of ATP",-0.2 ± 0.01 kcal/mol
same,Kd,TyrRA153 [2]; [7],193 ± 24 µM
same,K D,TyrRA153 [2]; [8],bound; also recorded: Binding ^a
same,ΔH,TyrRA153 [2]; [8],Binding ^a
"N[C@@H](Cc1c[nH]c2ccccc12)C(=O)O [L‐Trp, L‐Tryptophan]",effect of supplementation on ipdc transcription,"ipdc promoter; LB medium, different concentrations, 30°C",did not result in increased ipdc transcription
same,induction of ipdc gene expression compared to the same medium lacking the ligand,ipdc promoter; 30°C,no changes in ipdc expression
same,reduction of TyrRA153 DNA affinity,TyrRA153 [3]; presence of ligand,2.3 fold
same,competition with L-Tyr for binding at the ATP-dependent site of TyrRA153,TyrRA153 [2]; ITC,compete with L‐Tyr for binding
same,ΔH 1,"TyrRA153 [2]; ITC, in the presence of ATP",-1.8 ± 0.3 kcal/mol
same,ΔH 2,"TyrRA153 [2]; ITC, in the presence of ATP",-7.9 ± 1.7 kcal/mol
same,Kd,"TyrRA153 [2]; ITC, in the presence of ATP, read-out: K D1",1640 µM
same,Kd,"TyrRA153 [2]; ITC, in the presence of ATP, read-out: K D2",2060 µM
same,K D,TyrRA153 [2]; [8],bound
same,ΔH,TyrRA153 [2]; [8],-1.6 ± 0.5 kcal/mol
same,Kd,TyrRA153 [2]; [9],2680 ± 670 µM
Pipdc-mut-ITC (mutant TyrR box) (dsDNA) DNA 1: CCCCGACGTGGGAGCCGCCGTGTCAA DNA 2: TTGACACGGCGGCTCCCACGTCGGGG,binding result,TyrR (TyrRA153) [4],no binding
Pipdc-wt-ITC (wild-type TyrR box) (dsDNA) DNA 1: CCCCTGTAAAGGAGCCATTACATCAA DNA 2: TTGATGTAATGGCTCCTTTACAGGGG,Kd,TyrR (TyrRA153) [5],81 ± 10 nM
same,Kd,TyrR (TyrRA153) [4],193 ± 20 nM
same,Kd,TyrR (TyrRA153) [6],74 ± 10 nM
